# Data taken from US20080226758A1, “Lipoxygenase and Cyclooxygenase Inhibition” (priority 2006, published 2008).
# Values joined by “and” are separate entries in the source; they are usually repeats but may differ in a detail not shown here. Equal entries are not always repeated.
# How the values were obtained:
# Type in all cases: biochemical
# 15-LO = target: T1, 15-LO (Oryctolagus cuniculus, UniProt P12530); test: 15-LO assay (13-HPODE, spectrophotometric); settings: rabbit reticulocytes; 13-HPODE spectrophotometrically
# T1 construct: endogenous in cells; host or cells: rabbit reticulocytes
# T1 sequence (P12530 1-663): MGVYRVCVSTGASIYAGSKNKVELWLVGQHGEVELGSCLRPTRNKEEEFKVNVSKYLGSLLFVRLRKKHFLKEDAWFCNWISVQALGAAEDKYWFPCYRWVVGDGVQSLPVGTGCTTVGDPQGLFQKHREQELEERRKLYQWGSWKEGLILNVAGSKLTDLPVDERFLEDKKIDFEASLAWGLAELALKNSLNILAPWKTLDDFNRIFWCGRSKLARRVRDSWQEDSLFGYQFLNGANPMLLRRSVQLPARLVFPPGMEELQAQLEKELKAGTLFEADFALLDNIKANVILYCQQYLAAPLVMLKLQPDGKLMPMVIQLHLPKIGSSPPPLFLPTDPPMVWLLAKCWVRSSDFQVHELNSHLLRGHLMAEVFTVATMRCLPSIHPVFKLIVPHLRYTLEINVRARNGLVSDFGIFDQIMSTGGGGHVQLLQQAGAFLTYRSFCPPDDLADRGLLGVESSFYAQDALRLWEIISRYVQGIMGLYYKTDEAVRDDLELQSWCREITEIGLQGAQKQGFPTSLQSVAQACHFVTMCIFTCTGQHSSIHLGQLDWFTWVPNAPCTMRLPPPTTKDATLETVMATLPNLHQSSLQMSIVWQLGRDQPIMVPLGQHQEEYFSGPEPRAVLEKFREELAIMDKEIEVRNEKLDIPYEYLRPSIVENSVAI
# Experimental: (§1) 5-LO and 15-LO assays: Human peripheral blood mononuclear cells (PBMC) cells and rabbits reticulocytes were used in the 5-LO and 15-LO bioassays, and the assays were conducted according to the protocols reported previously, with either linoleic acid or arachidonic acid as substrates. LO activity was measured by quantifying immunodetectable Leukotriene B4 (LTB4) specifically with enzyme immunoassay (EIA) in the 5-LO assay, or monitoring 13-hydroperoxy-9,11-octadecadienoic acid (13-HPODE) spectrophotometrically in the 15-LO assay.
# (§2) The results were expressed as either percentage inhibition, or IC50, for test samples and data represent the average ±SD of at least triplicate determinations.
# Human recombinant COX-2 = target: T2, Human recombinant COX-2 (Homo sapiens, UniProt P35354); test: COX-2 inhibition assay (PGE2 EIA); settings: human recombinant COX-2 expressed in Sf21 cells; 0.3 μM arachidonic acid
# T2 construct: purchased Sigma C-0858; host or cells: insect Sf21 cells
# T2 sequence (P35354 18-604): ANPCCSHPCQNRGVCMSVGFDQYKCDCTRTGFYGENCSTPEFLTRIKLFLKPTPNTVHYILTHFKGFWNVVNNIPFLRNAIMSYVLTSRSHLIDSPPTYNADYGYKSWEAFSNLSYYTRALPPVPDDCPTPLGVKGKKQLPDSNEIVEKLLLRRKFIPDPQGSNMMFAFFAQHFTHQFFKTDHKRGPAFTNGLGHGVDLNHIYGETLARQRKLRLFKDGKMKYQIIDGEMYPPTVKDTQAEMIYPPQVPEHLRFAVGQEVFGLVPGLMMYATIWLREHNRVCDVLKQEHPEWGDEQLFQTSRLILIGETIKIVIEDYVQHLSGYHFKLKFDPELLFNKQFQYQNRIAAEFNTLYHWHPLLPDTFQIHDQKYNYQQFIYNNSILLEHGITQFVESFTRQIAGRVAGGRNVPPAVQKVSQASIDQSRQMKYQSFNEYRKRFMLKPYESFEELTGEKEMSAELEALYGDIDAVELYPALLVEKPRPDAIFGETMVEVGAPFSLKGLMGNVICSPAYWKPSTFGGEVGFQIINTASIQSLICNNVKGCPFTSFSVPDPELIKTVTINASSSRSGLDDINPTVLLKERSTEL
# Experimental: COX-1 and COX-2 assays: COX-1 and -2 Inhibition assays were performed by the methods described previously with minor modifications. COX-2 enzyme was purchased from Sigma (Catalog # C-0858), and the PGE2 EIA kit from Amersham (Catalog # RPN 220). Human recombinant COX-2, expressed in insect Sf21 cells, and human platelets, respectively, were used in the COX-2 and COX-1 assays. The extract and partitions were dissolved in DMSO (Sigma, USA), and tested at 100 μg/mL (final concentration). The pure compounds were initially tested at 30 μM. […] Test samples were preincubated with 0.12 μg/ml enzyme in modified Tris-HCl buffer pH 7.7 (COX-2), and with cells (5×10^7/ml), in modified HEPES buffer pH 7.4 (COX-1) for 15 minutes at 37° C. The reactions were initiated by addition of 0.3 μM arachidonic acid (COX-2), and 100 μM arachidonic acid (COX-1), respectively, for another 5-minute incubation period, then terminated by further addition of 1 N HCl. An aliquot was then combined with the EIA kit for spectrophotometric determination of the quantity of PGE2 formed.
# as §2
# 5-LO = target: T3, 5-LO (Homo sapiens, UniProt P09917); test: 5-LO assay (LTB4 by EIA); settings: human PBMC
# T3 construct: endogenous in cells; host or cells: human peripheral blood mononuclear cells (PBMC)
# T3 sequence (P09917 1-674): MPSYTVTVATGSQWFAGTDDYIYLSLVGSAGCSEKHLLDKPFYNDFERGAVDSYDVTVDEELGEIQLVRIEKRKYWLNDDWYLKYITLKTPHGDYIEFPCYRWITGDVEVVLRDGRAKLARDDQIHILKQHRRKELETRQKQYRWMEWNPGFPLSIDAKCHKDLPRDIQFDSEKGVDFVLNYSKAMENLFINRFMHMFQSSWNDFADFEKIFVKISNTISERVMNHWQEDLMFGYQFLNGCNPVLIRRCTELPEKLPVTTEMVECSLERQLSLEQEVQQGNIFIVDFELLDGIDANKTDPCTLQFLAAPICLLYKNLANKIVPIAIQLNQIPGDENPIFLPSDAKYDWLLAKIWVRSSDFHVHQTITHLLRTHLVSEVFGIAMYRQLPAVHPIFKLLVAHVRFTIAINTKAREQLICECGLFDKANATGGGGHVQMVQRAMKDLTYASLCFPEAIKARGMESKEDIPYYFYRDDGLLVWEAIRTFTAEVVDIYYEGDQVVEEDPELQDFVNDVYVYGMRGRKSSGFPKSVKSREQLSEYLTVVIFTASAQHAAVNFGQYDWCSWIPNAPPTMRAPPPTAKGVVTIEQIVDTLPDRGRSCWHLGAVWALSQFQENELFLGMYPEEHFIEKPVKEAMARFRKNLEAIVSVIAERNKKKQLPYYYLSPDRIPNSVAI
# Experimental: as §1, §2
IC50 (15-LO),IC50 (5-LO),Structure (SMILES),IC50 (Human recombinant COX-2)
520 nM,–,"Oc1ccc(C2OCC3C(c4ccc(O)c(O)c4)OCC23)cc1O (stereo not drawn) [compound 4, 3,3′-bisdemethylpinoresinol]",> 100000 nM
2200 nM,2650 to 13800 nM and 2700 nM,"O=c1c(O)c(-c2ccc(O)cc2)oc2cc(O)cc(O)c12 [compound 6, kaempferol]",–
16500 nM,–,"COc1cc2ccc(=O)oc2cc1O [compound 7, scopoletin]",–
15100 nM,–,"COc1cc2oc(=O)ccc2cc1O [compound 8, isoscopoletin]",–

Structure (SMILES),IC50 (15-LO),IC50 (5-LO),IC50 (Human recombinant COX-2)
"O=C1OC(c2ccc(O)c(O)c2)C2COC(c3ccc(O)c(O)c3)C12 (single isomer, unassigned; (+)) [compound 1, (+)-3,4,3′,4′-tetrahydroxy-9,7′α-epoxylignano-7α,9′-lactone]",520 nM,–,90200 nM
"OCC1C(c2ccc(O)c(O)c2)OCC1C(O)c1ccc(O)c(O)c1 (single isomer, unassigned; (+)) [compound 2, (+)-3,3′-bisdemethyltanegool]",760 nM,–,73900 nM
"O=c1c(O)c(-c2ccc(O)c(O)c2)oc2cc(O)cc(O)c12 [compound 5, quercetin]",430 nM,–,28600 nM
